Measured values as given in patent publication US7582674B2, “Nutraceutical compositions and use thereof” (DSM IP Assets B.V., priority 2003, dated 2009).

Tests used:
[1] = system: murine macrophages RAW264.7; experiment: Inhibition of NO (nitrite, Griess reaction) production in LPS-stimulated macrophages; type: cell-based
Protocol: (§1) In order to induce an in vitro ‘inflammatory response’, murine macrophages RAW264.7 were seeded into microtiter plates or 12-well plates and stimulated with lipopolysaccharide (LPS) without or with graded amounts of the test substances. Vehicle concentrations (i.e. DMSO) were kept constant. Culture supernatants were harvested after appropriate periods of time (4 to 24 hours). Prostaglandin E2 (PGE2) and nitrite produced from nitric oxide (NO) secreted into the culture medium were quantified by ELISA and the Griess reaction, respectively. The percentage of inhibition of PGE2 or NO production at a given concentration of the test substances (compared to maximal production by LPS-stimulated cells) was calculated.

[2] = system: murine macrophages RAW264.7; experiment: Inhibition of PGE2 (ELISA) production in LPS-stimulated macrophages; type: cell-based; conditions: combination = actually determined inhibition
Protocol: as §1

Work on `CCC=CCC=CCC=CCC=CCC=CCCCC(=O)O` [EPA, 5,8,11,14,17-eicosapentaenoic acid] yielded an inhibition at 12.5 µM ([1]; Mus musculus, RAW264.7, Table 2, LPS stimulated macrophages, EPA 12.5 μM) of 12.9%.

With `Oc1ccc(C=Cc2cc(O)cc(O)c2)cc1` [Resveratrol, resveratrol] the inhibition at 10 µM ([1]; Mus musculus, RAW264.7, Table 1, LPS-stimulated macrophages, each substance at 10 μM, combination = actually determined inhibition) was 8.3%, the inhibition at 2 µM ([1]; Mus musculus, RAW264.7, Table 2, LPS stimulated macrophages, Resveratrol 2 μM) was 10% and the inhibition at 10 µM ([2]; Mus musculus, RAW264.7, Table 1, each substance at 10 μM) was 26.8%.

(−)-Epigallocatechin gallate [EGCG] was tested, and the “% inhibition NO” value ([1]; Table 1, LPS-stimulated macrophages, each substance at 10 μM, combination = actually determined inhibition) was 4.4% and the “% inhibition PGE2” value ([2]; Table 1, each substance at 10 μM) was 1.8%.
